Several values for one entry are separate records, joined by “and”; a condition that tells them apart may be missing. Equal values may be shown once. Marks after values point to notes of the source that are not given here.

Series [1] can be described thus: Plasma concentration of OLEA and its metabolites after intragastric administration of ROO containing OLEA (LC-ESI-LTQ-Orbitrap-MS). Type of series: in vivo, male Sprague–Dawley rats. On the procedure: (§1) In this study, male Sprague–Dawley rats (body weight 227 ± 11 g) were obtained from Envigo RMS Spain SL (Sant Feliu de Codines, Barcelona, Spain). The animals were acclimated for at least 1 week before the initiation of dosing with free access to food and water. They were kept at 22 ± 2 °C in an air-conditioned room on a 12-h light–12-h dark cycle. Before the experiments, the animals were fasted overnight with water available ad libitum. The experiments were performed in compliance with the Animal Experimentation Ethics Committee of the University of Barcelona, Spain and were approved by the Generalitat de Catalunya (trial no. CEEA 124/16 and no. 6435, respectively).
(§2) Before the experiment, the ROO (used as a vehicle to dissolve OLEA for intragastric administration) was analyzed by LC-ESI-LTQ-Orbitrap-MS to make sure it was free of phenolic compounds. The liquid–liquid extraction of phenolic compounds in the ROO was performed following previously described procedures. The chromatographic and mass spectrometer conditions were the same as used for the identification of metabolites (Section 2.6). Once the absence of phenolic compounds was confirmed, the OLEA was added to obtain a final concentration of 0.3 mg/mL. This concentration was chosen based on its concentration in commercial EVOO (around 300 mg/kg), and the daily ingestion recommended by the European Food Safety Authority of at least 5 mg of hydroxytyrosol and its derivatives per 20 g of olive oil.
(§3) The rats were divided into three different groups according to the time of euthanasia: 1 h (n = 4), 2 h (n = 5), and 4.5 h (n = 4). At 0 h, ROO loaded with OLEA standard was supplied to the rats (2.5 mL/300 g body weight) by intragastric administration. Additionally, a control group of rats was maintained under fasting conditions without olive oil ingestion and then similarly euthanized. The gavage volume was established following a good practice guide for substance administration and was lower than the maximum volume of lipid vehicles per kg of rat body weight that prevents elevated plasma corticosterone levels.
(§4) The rats were anesthetized with isoflurane (IsoFlo, veterinaria Esteve, Barcelona, Spain) and euthanized by exsanguinations at the aforementioned time points after the ROO ingestion. Blood samples were collected in EDTA tubes, centrifuged to obtain the plasma (3000× g, 10 min at 4 °C), and stored at −80 °C until analysis. The gastrointestinal tract (including stomach and small intestine), heart, spleen, thyroids, lungs, brain, kidney, and skin were removed from rats at the designated time points. All tissues were washed with saline solution (NaCl 0.9%) and dried with filter paper. In the case of the intestine, the portion removed was 15 cm from 2 cm posterior to the pyloric sphincter, and the intestine was also washed internally by perfusing the isotonic saline solution several times. Rat tissues were accurately weighed and stored at −80 °C until analysis.
(§5) For extraction, all samples were slowly thawed in ice. To avoid compound oxidation, the samples were handled in a room with filtered light and kept on ice throughout. The clean-up of the biological matrix (protein precipitation) was performed using a previously developed method.
Plasma samples were centrifuged for 10 min (11,000× g, 4 °C). Briefly, 100 µL of each sample was deproteinized with ice-cold ACN acidified with formic acid (2%) in a 1:5 (v/v) ratio. The samples were then homogenized for 1 min and kept at −20 °C in a freezer for 20 min. After that, samples were centrifuged (11,000× g, 4 °C, 10 min) and finally, 100 µL of each organic phase was transferred to vials for analysis.
The metabolic profile was determined by analyzing the samples with LC-ESI-LTQ-Orbitrap-MS. […]

Details of series [2]: method as in PMID 21411025. The conditions noted are these: pH 2.0, after 4 h, partial hydrolysis releasing OH-TY; cited from earlier work.
The nature of series [3]: Tissue distribution of OLEA and its metabolites after intragastric administration of ROO containing OLEA (LC-ESI-LTQ-Orbitrap-MS). Type of series: in vivo, male Sprague–Dawley rats. The following applies: for Tissue concentration in heart / Concentration in liver / Concentration in small intestine / Concentration in stomach: mean ± SD; for Detection in heart, spleen, thyroids, lungs, brain, kidney, and skin: 1, 2 and 4.5 h after intragastric OLEA in ROO. On the procedure:
as §1, §2, §3, §4, §5
A small tissue disruptor (T 10 basic ULTRA-TURRAX®, IKA laboratory technology, Staufen, Germany) was used to homogenize the thawed tissues in a 1:1 ratio (w/v) with water:ACN (1:1 (v/v) with 0.1% ascorbic acid). The samples were then sonicated for 5 min in an ice bath, shaken for 1 min (Vortex-Genie 2) and centrifuged for 10 min (11,000× g, 4 °C). To precipitate the proteins, a volume of 100 µL of the upper layer was blended with cold ACN acidified with formic acid (2%) in a 1:3 (v/v) ratio. After that, the samples were homogenized for 1 min and kept at −20 °C in a freezer for 20 min. Finally, the samples were centrifuged for 10 min (11,000× g, 4 °C) and 100 µL of supernatant was transferred to vials for analysis. […]

On the set-up of series [4]: method as in PMID 21411025. The following applies: in vivo study with rats; cited from earlier work.
Details of series [5]: method as in doi:10.1016/j.jff.2016.01.030. The following applies: stomach at 1 h, another study; cited from earlier work.
Details of series [6]: method as in PMID 30469520, PMID 10745093. The conditions noted are these: moderate lipophilicity; cited from earlier work.
[7] abbreviates: 1 h after intragastric OLEA 0.3 mg/mL in ROO, mean ± SD.
The mark [8] stands for this setting: 2 h after intragastric OLEA 0.3 mg/mL in ROO, mean ± SD.
Setting [9] is: 4.5 h after intragastric OLEA 0.3 mg/mL in ROO, mean ± SD.
The mark [10] stands for this setting: 1 h after intragastric OLEA 0.3 mg/mL in ROO.
[11] abbreviates: small intestine, 1 h after intragastric OLEA 0.3 mg/mL in ROO.
Setting [12] is: small intestine, 2 h after intragastric OLEA 0.3 mg/mL in ROO.
Setting [13] is: small intestine, 4.5 h after intragastric OLEA 0.3 mg/mL in ROO.
Setting [14] is: stomach, 1 h after intragastric OLEA 0.3 mg/mL in ROO.
The mark [15] stands for this setting: stomach, 2 h after intragastric OLEA 0.3 mg/mL in ROO.
The mark [16] stands for this setting: stomach, 4.5 h after intragastric OLEA 0.3 mg/mL in ROO.
Where [17] appears, read: 2 h after intragastric OLEA 0.3 mg/mL in ROO.
Setting [18] is: 4.5 h after intragastric OLEA 0.3 mg/mL in ROO.

For `CC=C(C=O)C(CC=O)CC(=O)OCCc1ccc(O)c(O)c1` (stereo in doubt) [OLEA, Oleacein], the Concentration in plasma in series [1] (setting [7]) was 1.37 ± 0.20 nmol OLEA equivalents/mL and 1.37 ± 0.20 ^a nmol OLEA equivalents/mL; in series [1] (setting [8]), 0.65 ± 0.07 ^b nmol OLEA equivalents/mL; in series [1] (setting [9]), 0.67 ± 0.10 nmol OLEA equivalents/mL and 0.67 ± 0.10 ^b nmol OLEA equivalents/mL. In addition, the “Time of Cmax in plasma” value in series [1] (sampling at 1, 2, 4.5 h) stood at 1 h. In series [2], the “OLEA remaining after incubation at pH 2.0” value is on record as “about 67%”. Further, the “Tissue concentration in heart” value in series [3] (heart, 1 h after acute intake of OLEA (0.3 mg/mL) in ROO) is 0.44 ± 0.07 nmol OLEA equivalents/g tissue and 0.44 ± 0.07 ^a nmol OLEA equivalents/g tissue; in series [3] (heart, 2 h after acute intake of OLEA (0.3 mg/mL) in ROO) it was 0.45 ± 0.04 nmol OLEA equivalents/g tissue and 0.45 ± 0.04 ^a nmol OLEA equivalents/g tissue; in series [3] (heart, 4.5 h after acute intake of OLEA (0.3 mg/mL) in ROO), 0.44 ± 0.06 nmol OLEA equivalents/g tissue and 0.44 ± 0.06 ^a nmol OLEA equivalents/g tissue. Moreover, the “Concentrations detected in the heart” value in series [3] (heart, all time points) was ≤ 0.5 nmol OLEA equivalents/g tissue. The Concentration in liver in series [3] (setting [10]) is given as 0.28 ± 0.02 nmol OLEA equivalents/g tissue. Also, the “Concentration in small intestine” value is 2.24 ± 0.14 ^a nmol OLEA equivalents/g tissue in series [3] (setting [11]), 1.69 ± 0.25 ^b nmol OLEA equivalents/g tissue in series [3] (setting [12]) and 0.51 ± 0.10 ^c nmol OLEA equivalents/g tissue in series [3] (setting [13]). Further, the “Decrease of concentration in the small intestine relative to Cmax at 1 h” value in series [3] (small intestine, at 2 h) amounted to 25%; in series [3] (small intestine, at 4.5 h), 77%. Further, in series [3] (small intestine, sampling at 1, 2, 4.5 h), the “Time of Cmax in small intestine” value was 1 h. The Concentration in stomach in series [3] (setting [14]) is 8.73 ± 0.29 ^a nmol OLEA equivalents/g tissue; in series [3] (setting [15]), 7.39 ± 0.25 ^b nmol OLEA equivalents/g tissue; in series [3] (setting [16]), 5.77 ± 0.54 ^c nmol OLEA equivalents/g tissue. The “Decrease of concentration in the stomach relative to Cmax at 1 h” value is listed as 16% in series [3] (stomach, at 2 h) and 34% in series [3] (stomach, at 4.5 h). The “Time of Cmax in stomach” value in series [3] (stomach, sampling at 1, 2, 4.5 h) was 1 h. For the same molecule, in series [4], the “Degradation in the gastric region” value is “complete degradation”.
Regarding `OCCc1ccc(O)c(O)c1` [OH-TY, hydroxytyrosol], the “Share of the total metabolites identified in plasma” value in series [1] (1 h) was 20%; in series [1] (2 h), 22%; in series [1] (4.5 h), 17%. For the same molecule, the concentration at 1 h in series [1] (male, Sprague-Dawley, rat, oral, 2.5 mg/kg, 1 h after intragastric OLEA 0.3 mg/mL in ROO, mean ± SD) was 2110 ± 100 nM. Besides, the concentration at 2 h in series [1] (male, Sprague-Dawley, rat, oral, 2.5 mg/kg, 2 h after intragastric OLEA 0.3 mg/mL in ROO, mean ± SD) stood at 3020 ± 160 nM. Also, the concentration at 4.5 h in series [1] (male, Sprague-Dawley, rat, oral, 2.5 mg/kg, 4.5 h after intragastric OLEA 0.3 mg/mL in ROO, mean ± SD) amounted to 1620 ± 140 nM. For the same molecule, the “OH-TY concentration in stomach” value in series [5] is 8.75 ± 1.95 nmols/g digesta. In series [6], the logP is given as ~ 0.9. Moreover, in series [3], the “Detection in heart, spleen, thyroids, lungs, brain, kidney, and skin” value is recorded as “not detected”. Further, the figures for the Concentration in liver in series [3] (setting [10]), in series [3] (setting [17]) and in series [3] (setting [18]) were 3.34 ± 0.08 ^b nmol OLEA equivalents/g tissue, 3.83 ± 0.21 ^a nmol OLEA equivalents/g tissue and 2.51 ± 0.07 ^c nmol OLEA equivalents/g tissue, respectively. Further, the “Concentration in small intestine” value was 4.71 ± 0.32 ^a nmol OLEA equivalents/g tissue in series [3] (setting [11]), 3.79 ± 0.29 ^b nmol OLEA equivalents/g tissue in series [3] (setting [12]) and 2.70 ± 0.21 ^c nmol OLEA equivalents/g tissue in series [3] (setting [13]). Besides, the Concentration in stomach in series [3] (setting [14]) was 13.37 ± 1.27 ^a nmol OLEA equivalents/g tissue; in series [3] (setting [15]) it was 7.81 ± 0.69 ^b nmol OLEA equivalents/g tissue; in series [3] (setting [16]), 5.23 ± 0.37 ^c nmol OLEA equivalents/g tissue.
With elenolic acid [EA], the values for the Concentration in plasma in series [1] (setting [7]), in series [1] (setting [8]) and in series [1] (setting [9]) were 0.43 ± 0.03 ^b nmol OLEA equivalents/mL, 0.76 ± 0.04 ^a nmol OLEA equivalents/mL and 0.16 ± 0.02 ^c nmol OLEA equivalents/mL, respectively. For the same molecule, in series [6], the logP is listed as ~ 0.9. Also, the “Detection in heart, spleen, thyroids, lungs, brain, kidney, and skin” value in series [3] is given as “not detected”. The values for the Concentration in liver in series [3] (setting [10]), in series [3] (setting [17]) and in series [3] (setting [18]) were 1.07 ± 0.06 ^b nmol OLEA equivalents/g tissue, 1.34 ± 0.08 ^a nmol OLEA equivalents/g tissue and 0.76 ± 0.02 ^c nmol OLEA equivalents/g tissue, respectively. Moreover, the “Concentration in small intestine” value was 1.81 ± 0.05 ^a nmol OLEA equivalents/g tissue in series [3] (setting [11]), 0.67 ± 0.08 ^b nmol OLEA equivalents/g tissue in series [3] (setting [12]) and 0.16 ± 0.02 ^c nmol OLEA equivalents/g tissue in series [3] (setting [13]). In addition, the values for the Concentration in stomach in series [3] (setting [14]), in series [3] (setting [15]) and in series [3] (setting [16]) were 7.53 ± 0.56 ^a nmol OLEA equivalents/g tissue, 4.07 ± 0.36 ^b nmol OLEA equivalents/g tissue and 1.81 ± 0.13 ^c nmol OLEA equivalents/g tissue, respectively.

Values taken from publication PMC8301114, “LC-ESI-LTQ-Orbitrap-MS for Profiling the Distribution of Oleacein and Its Metabolites in Rat Tissues” (Antioxidants, 2021).
